US20210207070A1, “A CELL CULTURING PLATFORM, A CELL CULTURE SYSTEM, AND A METHOD FOR MODELING NEURAL ACTIVITY IN VITRO” (Tampere University Foundation sr, priority 2018, published 2021)

System: neurons
Test: Activity of neurons in the closed-loop cell culturing platform, measured with electrodes in the guiding tunnels
Type: cell-based
Details: kainate acid added to the compartment Area 1; FIG. 5c
From the text: FIGS. 5a and 5b illustrate activity of neurons in a cell culturing platform according to an exemplifying and non-limiting embodiment. FIG. 5a illustrates signals measured with electrodes in the compartments of the cell culturing platform. The compartments are denoted with references ‘Area 1’, ‘Area 2’, and ‘Area 3’. As shown by black arrows in FIG. 5a, there is synchronous activity in the compartments Area 1, Area 2, and Area 3. […] of the cell culturing platform. The signals measured with electrodes in the guiding tunnels between the compartments Area 2 and Area 3 are denoted with a reference ‘2-3’, the signals measured with electrodes in the guiding tunnels between the compartments Area 1 and Area 2 are denoted with a reference ‘1-2’, and the signals measured with electrodes in the guiding tunnels between the compartments Area 3 and Area 1 are denoted with a reference ‘3-1’. As shown by black arrows in FIG. 5b, there is synchronous activity in the guiding tunnels between different pairs of the compartments.
FIG. 5c illustrates an effect of adding kainate acid to the compartment Area 1.

C=C(C)[C@H]1CN[C@H](C(=O)O)[C@H]1CC(=O)O [kainate acid] was tested, and the “activity measured with electrodes in the guiding tunnels between the compartments Area 1 and Area 2” value was “increases the activity”, the “activity measured with electrodes in the guiding tunnels between the compartments Area 2 and Area 3” value was “substantially on the base level” and the “activity measured with electrodes in the guiding tunnels between the compartments Area 3 and Area 1” value was “increases the activity”.
